From patent US20100323990A1, “SHIP 1 MODULATOR PRODRUGS” (THE UNIVERSITY OF BRITISH COLUMBIA, priority 2006, published 2010)

Tests used:
J774.1a macrophage cells = experiment: Macrophage TNF-α production (Assay 2); format: cell-based; details: 10 μg/mL test compound, 100 ng/mL LPS, supernatants after 2 hr and 5 hr; further: key: a ‘+’ indicates a positive result for desired activity; a ‘−’ indicates a negative result for desired activity
Outline: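 J774.1a macrophages pretreated 40 min with 10 μg/mL compound, then LPS (100 ng/mL for TNF-α); TNF-α by ELISA in supernatants at 2 and 5 h, NO by Griess at 24 h. Mast cells IgE-loaded (anti-DNP), compound 30 min, DNP-HSA challenge; calcium flux by fura-2 spectrofluorometry, signalling by immunoblot.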

[1] = tested on: CD1 mice sensitized to the hapten DNP; experiment: Mouse acute cutaneous anaphylaxis model (Assay 5); format: in vivo; details: for Assay 5: Mouse acute cutaneous anaphylaxis model, desired activity: topical on ear, DNFB challenge, MPO activity
plasma TNFα = experiment: Mouse endotoxemia model (Assay 6), plasma TNFα by ELISA; format: in vivo, mice; details: for Assay 6: Mouse endotoxemia model, desired activity: oral, 30 min prior to IP 2 mg/kg LPS, plasma TNFα 2 hrs later
Method: Assay 1) In vitro testing in a SHIP enzyme assay. Test compounds were dissolved in a suitable solvent (e.g. EtOH, DMSO and others) and diluted into aqueous buffer (20 mM Tris HCl, pH 7.5 and 10 mM MgCl2). SHIP enzyme assays were performed in 96-well microtitre plates with 10 ng of enzyme/well in a total volume of 25 μL of 20 mM Tris HCl, pH 7.5 and 10 mM MgCl2. SHIP enzyme was incubated with test extracts (provided in solvent) or vehicle for 15 min at 23° C. before the addition of 100 μM inositol-1,3,4,5-tetrakisphosphate (Echelon Biosciences Inc, Salt Lake City, Utah). After 20 min at 37° C. and the amount of inorganic phosphate released assessed by the addition of Malachite Green reagent and absorbance measurement at 650 nm. Assay 2) Macrophage TNF-α production. J774.1a macrophage cells were treated with 10 μg/mL of test compound dissolved in solvent (e.g. cyclodextran) for 40 minutes prior to the addition of 100 ng/mL LPS. Culture supernatants were collected after 2 hr and 5 hr for TNF-α determination by ELISA. Assay 3) Macrophage TNF-α NO assay. J774.1a macrophage cells were treated with 10 μg/ml of test compound dissolved in solvent for 40 minutes prior to the addition of LPS. Culture supernatants were collected after 24 hr. for determination of NO concentration using the Griess reagent. Assay 4) Stimulation of mast cells by FcεRI crosslinking. Mast cells were pre-loaded overnight in BMMC medium lacking IL-3 with 0.1 μg/ml anti-DNP IgE (SPE-7, Sigma, Oakville, Ont). For calcium flux measurements, cells were incubated with 2 μM fura 2-acetoxymethyl ester (Molecular Probes, Eugene, Oreg.) in Tyrode's buffer at 23° C. for 45 min. Cells were then washed and incubated in the presence of the test compound 30 min prior to stimulation with the indicated concentration of DNP-human serum albumin (DNP-HSA). Calcium influx was monitored by spectrofluorometry as described previously. For analysis of intracellular signaling, cells were pre-loaded with anti-DNP IgE as above, pre-treated with the test compound for 30 min at 37° C. and stimulated with 20 ng/ml DNP-HSA for 5 min. Total cell lysates were then prepared and analyzed for phospho-PKB, phospho-p38^MAPK, phospho-MAPK, Grb-2 (Cell Signalling, Mississauga, Ont) and SHIP^6 by immunoblot analysis. Assay 5) Mouse acute cutaneous anaphylaxis model. 6-8 week old CD1 mice (University of British Columbia Animal Facility, Vancouver, BC) were sensitized to the hapten DNP by cutaneous application of 25 μL of 0.5% dinitrofluorobenzene (DNFB) (Sigma, Oakville, Ont) in acetone to the shaved abdomen of mice for two consecutive days. 24 hrs later, test substances (dissolved in 10 μL of 1:2 DMSO:MeOH) were painted on the right ear while the left ear received vehicle control. 30 min after drug application, DNFB was applied to both ears to induce mast cell degranulation. A 6 mm punch was taken from the ear and immediately frozen on dry ice for subsequent determination of neutrophil myeloperoxidase (MPO) activity. Assay 6) Mouse endotoxemia model. […] The ability of SHIP activators to reduce tumor cell survival was assessed in MM cell lines treated with the test compound. The lines OPM1, OPM2, MM.1S and RPMI 8226 were plated at a density of 1×10^5 cells/mL in 200 μL of medium with various concentrations of the test compound, and viable cell numbers were determined on day 3 and day 5 by trypan blue exclusion. […]

LNCaP cells = experiment: PKB activation in LNCaP cells, which do not express SHIP; format: cell-based, human; details: AQX-016A at doses up to 60 μM
Method: The ability of AQX-016A to inhibit activation of PIP3-dependent downstream signalling proteins in SHIP^+/+ vs SHIP^−/− was assessed. LPS stimulation of macrophages results in PKB phosphorylation. […] Similar protein loading was confirmed by reblotting with either antibodies to PKB or Grb2. […] Thus, AQX-016A inhibits PIP3-regulated intracellular signal transduction events in SHIP expressing hematopoietic cells, but not in SHIP-deficient hematopoietic or non-hematopoietic cells.

SMILES | Assay 2: Macrophage TNF-α production, desired activity (J774.1a macrophage cells) | Assay 5: Mouse acute cutaneous anaphylaxis model, desired activity [1] | allergen (DNFB)-induced inflammation of the ear ([1]; topically applied, vs vehicle control-treated ear) | LPS-induced plasma/serum TNFα levels (plasma TNFα; oral administration 30 min prior to LPS) | Assay 6: Mouse endotoxemia model, desired activity (plasma TNFα) | PKB phosphorylation in LNCaP cells (LNCaP cells)
Cc1cc(O)cc2c1[C@]1(C)CCC3C(C)(C)CCC[C@]3(C)[C@H]1C2 (stereo partly drawn) [Compound 100] | + | + | dramatically inhibited allergen-induced inflammation | efficiently inhibited | + | –
Cc1cc(O)c(O)c2c1[C@]1(C)CCC3C(C)(C)CCC[C@]3(C)[C@H]1C2 (stereo partly drawn) [AQX-016A] | + | + | – | – | + | no effect
